According to ChEMBL document CHEMBL4364276, “Discovery of 4-phenyl-2H-benzo[b][1,4]oxazin-3(4H)-one derivatives as potent and orally active PI3K/mTOR dual inhibitors” (Eur J Med Chem, 2019):

What was measured:
L02 = test: Cytotoxicity against human LO2 cells assessed as reduction in cell viability at 0.625 to 20 uM incubated for 72 hrs by MTT assay; type: cell-based; details: l02, 72 h
[1] = target: Serine/threonine-protein kinase mTOR (Homo sapiens, UniProt P42345); test: Inhibition of recombinant human N-terminal FLAG-tagged mTOR (1362 to end residues) using Ulight-4E-BP1 as substrate incubated for 30 mins by fluorescence assay
[2] = target: Activin receptor type-1-like (Homo sapiens) (UniProt P37023); test: Inhibition of human ALK1 at 100 nM using casein as substrate by [gamma-33P]-ATP assay
[3] = target: Activin receptor type-1 (Homo sapiens) (UniProt Q04771); test: Inhibition of human ALK2 at 100 nM using casein as substrate by [gamma-33P]-ATP assay
[4] = target: Mitogen-activated protein kinase kinase kinase 5 (Homo sapiens) (UniProt Q99683); test: Inhibition of human ASK1 at 100 nM using MBP as substrate by [gamma-33P]-ATP assay
[5] = target: Dual specificity protein kinase CLK3 (Homo sapiens) (UniProt P49761); test: Inhibition of human CLK3 at 100 nM using MBP as substrate by [gamma-33P]-ATP assay
[6] = target: Serine/threonine-protein kinase DCLK1 (Homo sapiens) (UniProt O15075); test: Inhibition of human DCAMKL1 at 100 nM using KKLNRTLSFAEPG as substrate by [gamma-33P]-ATP assay
[7] = target: Serine/threonine-protein kinase MRCK gamma (Homo sapiens) (UniProt Q6DT37); test: Inhibition of human DMPK2 at 100 nM using KKRPQRRYSNVF as substrate by [gamma-33P]-ATP assay
[8] = target: Dual specificity tyrosine-phosphorylation-regulated kinase 2 (Homo sapiens) (UniProt Q92630); test: Inhibition of human DYRK2 at 100 nM using RRRFRPASPLRGPPK as substrate by [gamma-33P]-ATP assay
[9] = target: Tyrosine-protein kinase JAK3 (Homo sapiens) (UniProt P52333); test: Inhibition of human JAK3 at 100 nM using poly[Glu:Tyr] (4:1) as substrate by [gamma-33P]-ATP assay
[10] = target: Serine/threonine-protein kinase ICK (Homo sapiens) (UniProt Q9UPZ9); test: Inhibition of human LCK2 at 100 nM using MBP as substrate by [gamma-33P]-ATP assay
[11] = target: Serine/threonine-protein kinase MARK2 (Homo sapiens) (UniProt Q7KZI7); test: Inhibition of human MARK2 isoform 4 at 100 nM using KKKVSRSGLYRSPSMPENLNRPR as substrate by [gamma-33P]-ATP assay
[12] = target: Mitogen-activated protein kinase kinase kinase 3 (Homo sapiens) (UniProt Q99759); test: Inhibition of human MEKK3 at 100 nM using MBP as substrate by [gamma-33P]-ATP assay
[13] = target: Mitogen-activated protein kinase 11 (Homo sapiens) (UniProt Q15759); test: Inhibition of human p38beta at 100 nM using MBP as substrate by [gamma-33P]-ATP assay
[14] = target: Serine/threonine-protein kinase PAK 5 (Homo sapiens) (UniProt Q9P286); test: Inhibition of human PAK5 at 100 nM using RRRLSFAEPG as substrate by [gamma-33P]-ATP assay
[15] = target: Serine/threonine-protein kinase PAK 6 (Homo sapiens) (UniProt Q9NQU5); test: Inhibition of human PAK6 at 100 nM using RRRLSFAEPG as substrate by [gamma-33P]-ATP assay
[16] = target: Serine/threonine-protein kinase pim-2 (Homo sapiens) (UniProt Q9P1W9); test: Inhibition of human PIM2 at 100 nM using RSRHSSYPAGT as substrate by [gamma-33P]-ATP assay
[17] = target: Protein kinase C epsilon type (Homo sapiens) (UniProt Q02156); test: Inhibition of human PKCepsilon at 100 nM using ERMRPRKRQGSVRRRV as substrate by [gamma-33P]-ATP assay
[18] = target: Serine/threonine-protein kinase D3 (Homo sapiens) (UniProt O94806); test: Inhibition of human PKCnu at 100 nM using KKLNRTLSVA as substrate by [gamma-33P]-ATP assay
[19] = target: Protein kinase C theta type (Homo sapiens) (UniProt Q04759); test: Inhibition of human PKCtheta at 100 nM using Histone H1 as substrate by [gamma-33P]-ATP assay
[20] = target: Serine/threonine-protein kinase PLK3 (Homo sapiens) (UniProt Q9H4B4); test: Inhibition of human PLK3 at 100 nM using casein as substrate by [gamma-33P]-ATP assay
[21] = target: Ribosomal protein S6 kinase alpha-3 (Homo sapiens) (UniProt P51812); test: Inhibition of human RSK2 at 100 nM using KKLNRTLSVA as substrate by [gamma-33P]-ATP assay
[22] = target: Tyrosine-protein kinase Srms (Homo sapiens) (UniProt Q9H3Y6); test: Inhibition of human SRMS at 100 nM using poly[Glu:Tyr] (4:1) as substrate by [gamma-33P]-ATP assay
[23] = target: SRSF protein kinase 2 (Homo sapiens) (UniProt P78362); test: Inhibition of human SRPK2 at 100 nM using GRSRSRSRSR as substrate by [gamma-33P]-ATP assay
[24] = target: Tyrosine-protein kinase SYK (Homo sapiens) (UniProt P43405); test: Inhibition of human SYK at 100 nM using poly[Glu:Tyr] (4:1) as substrate by [gamma-33P]-ATP assay
[25] = target: Mitogen-activated protein kinase kinase kinase 7 (Homo sapiens) (UniProt O43318); test: Inhibition of human TAK1 at 100 nM using casein as substrate by [gamma-33P]-ATP assay
[26] = target: Serine/threonine-protein kinase WNK1 (Homo sapiens) (UniProt Q9H4A3); test: Inhibition of human WNK1 at 100 nM using MBP as substrate by [gamma-33P]-ATP assay
[27] = target: Tyrosine-protein kinase ZAP-70 (Homo sapiens) (UniProt P43403); test: Inhibition of human ZAP70 at 100 nM using poly[Glu:Tyr] (4:1) as substrate by [gamma-33P]-ATP assay
Homo sapiens = species: Homo sapiens; test: Inhibition of human AMPK (A2/B1/G1) at 100 nM using HMRSAMSGLHLVKRR as substrate by [gamma-33P]-ATP assay
[28] = target: Eukaryotic translation initiation factor 2-alpha kinase 1 (Homo sapiens) (UniProt Q9BQI3); test: Inhibition of human EIF2AK1 at 100 nM using MBP as substrate by [gamma-33P]-ATP assay

Serine/threonine-protein kinase DCLK1 (Homo sapiens), sequence (O15075 whole entry): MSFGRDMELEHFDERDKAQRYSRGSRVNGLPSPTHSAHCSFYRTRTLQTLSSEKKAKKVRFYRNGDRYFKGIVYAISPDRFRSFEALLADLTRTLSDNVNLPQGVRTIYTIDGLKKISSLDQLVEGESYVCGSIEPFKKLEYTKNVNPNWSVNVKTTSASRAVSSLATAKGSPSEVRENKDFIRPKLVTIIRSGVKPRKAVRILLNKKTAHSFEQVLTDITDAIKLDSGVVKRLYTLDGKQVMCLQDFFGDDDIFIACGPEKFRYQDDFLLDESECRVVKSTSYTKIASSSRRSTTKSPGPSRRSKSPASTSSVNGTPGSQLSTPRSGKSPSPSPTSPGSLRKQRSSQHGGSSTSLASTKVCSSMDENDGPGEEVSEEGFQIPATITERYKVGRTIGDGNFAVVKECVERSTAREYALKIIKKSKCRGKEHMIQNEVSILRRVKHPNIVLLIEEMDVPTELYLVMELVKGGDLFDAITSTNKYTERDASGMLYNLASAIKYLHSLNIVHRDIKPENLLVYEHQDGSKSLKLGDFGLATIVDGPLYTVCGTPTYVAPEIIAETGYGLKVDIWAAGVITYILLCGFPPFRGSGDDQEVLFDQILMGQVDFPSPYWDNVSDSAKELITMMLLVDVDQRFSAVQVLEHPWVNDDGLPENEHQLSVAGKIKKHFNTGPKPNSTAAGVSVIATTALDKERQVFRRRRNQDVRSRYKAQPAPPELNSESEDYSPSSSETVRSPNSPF
Protein kinase C epsilon type (Homo sapiens), sequence (Q02156 whole entry): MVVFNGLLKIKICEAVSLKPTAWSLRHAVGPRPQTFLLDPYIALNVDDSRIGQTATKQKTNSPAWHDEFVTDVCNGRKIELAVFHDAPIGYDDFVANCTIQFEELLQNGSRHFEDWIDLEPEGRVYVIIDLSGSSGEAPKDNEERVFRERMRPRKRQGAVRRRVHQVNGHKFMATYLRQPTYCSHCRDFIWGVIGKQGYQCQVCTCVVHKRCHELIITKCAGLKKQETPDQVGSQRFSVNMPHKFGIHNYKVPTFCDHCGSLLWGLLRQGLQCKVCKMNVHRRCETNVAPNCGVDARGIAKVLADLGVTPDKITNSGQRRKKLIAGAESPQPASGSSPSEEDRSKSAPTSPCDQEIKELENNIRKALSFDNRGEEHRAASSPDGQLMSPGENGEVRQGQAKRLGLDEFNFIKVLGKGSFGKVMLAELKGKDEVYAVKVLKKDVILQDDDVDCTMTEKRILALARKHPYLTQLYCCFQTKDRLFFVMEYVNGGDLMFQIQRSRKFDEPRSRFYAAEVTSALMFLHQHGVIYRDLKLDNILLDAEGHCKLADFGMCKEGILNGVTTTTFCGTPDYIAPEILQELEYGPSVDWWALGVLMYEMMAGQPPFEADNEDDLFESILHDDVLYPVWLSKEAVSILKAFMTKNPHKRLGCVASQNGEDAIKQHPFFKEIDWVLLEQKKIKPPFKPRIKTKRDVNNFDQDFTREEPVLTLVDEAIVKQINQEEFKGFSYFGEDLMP
Serine/threonine-protein kinase WNK1 (Homo sapiens), sequence (Q9H4A3 whole entry, looked up): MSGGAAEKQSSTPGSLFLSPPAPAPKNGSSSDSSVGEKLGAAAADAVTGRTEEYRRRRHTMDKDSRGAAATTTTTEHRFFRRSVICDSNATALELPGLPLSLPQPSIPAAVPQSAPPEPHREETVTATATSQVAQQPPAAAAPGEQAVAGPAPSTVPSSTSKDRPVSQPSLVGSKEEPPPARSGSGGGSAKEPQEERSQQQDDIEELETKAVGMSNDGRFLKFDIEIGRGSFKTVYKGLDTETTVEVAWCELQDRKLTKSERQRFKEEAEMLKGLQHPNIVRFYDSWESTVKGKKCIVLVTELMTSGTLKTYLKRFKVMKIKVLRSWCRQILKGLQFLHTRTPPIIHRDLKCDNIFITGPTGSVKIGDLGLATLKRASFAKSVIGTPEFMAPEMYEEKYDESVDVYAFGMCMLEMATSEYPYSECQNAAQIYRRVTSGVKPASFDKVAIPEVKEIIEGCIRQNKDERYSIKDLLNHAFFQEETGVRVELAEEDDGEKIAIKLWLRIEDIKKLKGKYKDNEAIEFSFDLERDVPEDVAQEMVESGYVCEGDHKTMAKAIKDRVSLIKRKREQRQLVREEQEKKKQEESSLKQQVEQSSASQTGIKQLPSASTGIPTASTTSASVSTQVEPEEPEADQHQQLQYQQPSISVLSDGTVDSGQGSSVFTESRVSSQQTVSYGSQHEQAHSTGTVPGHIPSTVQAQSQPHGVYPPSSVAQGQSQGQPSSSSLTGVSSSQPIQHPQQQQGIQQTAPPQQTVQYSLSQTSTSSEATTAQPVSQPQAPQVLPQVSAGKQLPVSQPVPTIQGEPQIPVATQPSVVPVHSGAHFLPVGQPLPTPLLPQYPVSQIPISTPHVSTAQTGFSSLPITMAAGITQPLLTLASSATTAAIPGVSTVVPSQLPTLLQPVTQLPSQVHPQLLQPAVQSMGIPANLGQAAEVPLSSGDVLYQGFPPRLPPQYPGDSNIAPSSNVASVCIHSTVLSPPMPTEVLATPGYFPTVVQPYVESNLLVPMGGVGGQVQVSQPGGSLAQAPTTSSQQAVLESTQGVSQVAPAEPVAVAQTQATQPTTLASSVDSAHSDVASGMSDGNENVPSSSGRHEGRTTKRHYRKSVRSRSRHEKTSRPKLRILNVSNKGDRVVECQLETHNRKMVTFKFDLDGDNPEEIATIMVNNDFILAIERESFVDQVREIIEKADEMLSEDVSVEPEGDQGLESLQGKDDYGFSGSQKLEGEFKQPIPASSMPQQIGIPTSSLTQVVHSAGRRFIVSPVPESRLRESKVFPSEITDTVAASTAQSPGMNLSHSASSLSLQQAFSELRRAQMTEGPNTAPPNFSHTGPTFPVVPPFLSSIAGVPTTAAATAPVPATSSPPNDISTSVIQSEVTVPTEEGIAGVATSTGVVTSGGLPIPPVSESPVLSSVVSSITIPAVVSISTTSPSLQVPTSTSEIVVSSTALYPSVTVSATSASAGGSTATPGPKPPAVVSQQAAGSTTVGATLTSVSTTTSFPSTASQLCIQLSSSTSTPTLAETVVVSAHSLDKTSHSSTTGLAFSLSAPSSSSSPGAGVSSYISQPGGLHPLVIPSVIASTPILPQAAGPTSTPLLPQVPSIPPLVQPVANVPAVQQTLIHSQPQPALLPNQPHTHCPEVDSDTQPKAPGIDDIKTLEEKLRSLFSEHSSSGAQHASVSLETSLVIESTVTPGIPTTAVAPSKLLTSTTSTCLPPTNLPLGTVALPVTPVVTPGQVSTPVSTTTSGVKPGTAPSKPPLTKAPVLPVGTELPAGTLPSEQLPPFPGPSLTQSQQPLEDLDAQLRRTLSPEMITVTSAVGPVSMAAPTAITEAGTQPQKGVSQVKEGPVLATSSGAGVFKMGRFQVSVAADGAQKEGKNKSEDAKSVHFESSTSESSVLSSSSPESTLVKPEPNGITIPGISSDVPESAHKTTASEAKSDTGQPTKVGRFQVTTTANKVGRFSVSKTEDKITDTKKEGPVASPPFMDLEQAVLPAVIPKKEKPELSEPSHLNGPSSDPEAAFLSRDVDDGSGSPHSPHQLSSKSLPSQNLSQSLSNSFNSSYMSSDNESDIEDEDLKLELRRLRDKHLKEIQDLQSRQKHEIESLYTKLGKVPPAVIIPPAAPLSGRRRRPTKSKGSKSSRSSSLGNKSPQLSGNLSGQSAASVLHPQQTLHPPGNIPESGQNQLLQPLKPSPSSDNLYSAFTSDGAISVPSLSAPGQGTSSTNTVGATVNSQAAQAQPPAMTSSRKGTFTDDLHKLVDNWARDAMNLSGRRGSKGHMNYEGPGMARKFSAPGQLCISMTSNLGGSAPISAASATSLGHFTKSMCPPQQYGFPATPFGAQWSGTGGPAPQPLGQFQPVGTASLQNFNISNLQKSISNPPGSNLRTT
Serine/threonine-protein kinase D3 (Homo sapiens), sequence (O94806 whole entry): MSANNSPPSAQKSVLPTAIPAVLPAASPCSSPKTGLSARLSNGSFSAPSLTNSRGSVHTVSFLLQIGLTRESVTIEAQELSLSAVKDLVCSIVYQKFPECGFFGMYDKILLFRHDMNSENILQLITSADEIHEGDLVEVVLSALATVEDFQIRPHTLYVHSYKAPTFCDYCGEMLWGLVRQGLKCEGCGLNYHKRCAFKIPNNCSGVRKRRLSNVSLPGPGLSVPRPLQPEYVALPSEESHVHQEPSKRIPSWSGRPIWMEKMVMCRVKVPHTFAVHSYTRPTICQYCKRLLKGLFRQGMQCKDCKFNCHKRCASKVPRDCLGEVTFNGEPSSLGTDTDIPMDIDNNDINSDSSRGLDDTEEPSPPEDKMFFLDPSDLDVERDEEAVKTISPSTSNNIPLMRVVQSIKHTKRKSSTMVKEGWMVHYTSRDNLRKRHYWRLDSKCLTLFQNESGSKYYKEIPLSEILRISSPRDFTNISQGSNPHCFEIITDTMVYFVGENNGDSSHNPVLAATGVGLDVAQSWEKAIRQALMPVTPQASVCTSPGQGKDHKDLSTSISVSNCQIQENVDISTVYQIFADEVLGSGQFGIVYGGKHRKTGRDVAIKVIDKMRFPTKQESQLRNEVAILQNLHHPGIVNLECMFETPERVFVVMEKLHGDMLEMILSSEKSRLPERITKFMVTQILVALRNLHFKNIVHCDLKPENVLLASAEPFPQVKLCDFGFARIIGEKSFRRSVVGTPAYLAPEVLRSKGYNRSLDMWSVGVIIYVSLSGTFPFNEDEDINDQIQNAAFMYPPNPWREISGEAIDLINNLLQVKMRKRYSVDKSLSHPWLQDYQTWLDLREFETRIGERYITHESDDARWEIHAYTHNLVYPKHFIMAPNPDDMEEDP
Serine/threonine-protein kinase pim-2 (Homo sapiens), sequence (Q9P1W9 whole entry, looked up): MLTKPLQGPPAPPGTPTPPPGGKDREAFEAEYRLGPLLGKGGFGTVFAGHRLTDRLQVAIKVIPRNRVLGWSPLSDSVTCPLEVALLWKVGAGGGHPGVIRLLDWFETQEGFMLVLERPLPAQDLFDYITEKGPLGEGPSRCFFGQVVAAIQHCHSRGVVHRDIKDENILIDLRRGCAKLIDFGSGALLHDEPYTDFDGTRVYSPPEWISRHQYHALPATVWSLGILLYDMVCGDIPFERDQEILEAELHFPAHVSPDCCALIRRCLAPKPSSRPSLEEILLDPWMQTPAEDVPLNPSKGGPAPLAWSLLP

Q: How did the Activity (L02) turn out when `COc1ccc(N2C(=O)COc3ccc(-c4cnc(OC)c(NS(=O)(=O)c5ccc(F)cc5)c4)cc32)cc1` was run?
A: Non-Toxic

Q: And the IC50 [1]?
A: 13.9 nM

Q: And the inhibition [2]?
A: -8.35%

Q: What about the inhibition [3] of the same compound?
A: 12.7%

Q: What about the inhibition [4] of the same compound?
A: -8.49%

Q: What about the inhibition [5] of the same compound?
A: 7.47%

Q: And the inhibition [6]?
A: -5.81%

Q: And the inhibition [7]?
A: -9.5%

Q: What about the inhibition [8] of the same compound?
A: 3.05%

Q: What about the inhibition [9] of the same compound?
A: -4.79%

Q: What about the inhibition [10] of the same compound?
A: 7.92%

Q: What about the inhibition [11] of the same compound?
A: 1.93%

Q: And the inhibition [12]?
A: 2.85%

Q: And the inhibition [13]?
A: 9.33%

Q: What about the inhibition [14] of the same compound?
A: -1.26%

Q: What about the inhibition [15] of the same compound?
A: 2.76%

Q: What about the inhibition [16] of the same compound?
A: 0.23%

Q: And the inhibition [17]?
A: 3.65%

Q: What about the inhibition [18] of the same compound?
A: 2.41%

Q: And the inhibition [19]?
A: 0.73%

Q: And the inhibition [20]?
A: -5.25%

Q: And the inhibition [21]?
A: 19.6%

Q: And the inhibition [22]?
A: 14.2%

Q: And the inhibition [23]?
A: -0.24%

Q: And the inhibition [24]?
A: 3.43%

Q: What about the inhibition [25] of the same compound?
A: 12.5%

Q: And the inhibition [26]?
A: 13.9%

Q: What about the inhibition [27] of the same compound?
A: -9.69%

Q: What about the inhibition (Homo sapiens) of the same compound?
A: -3.88%

Q: What about the inhibition [28] of the same compound?
A: 3.42%
